# Results published in patent publication EP0336958B1, “PRODUCT CONTAINING AS ACTIVE PRINCIPLES: A) A PEPTIDE HAVING AN ACTIVITY OF THE TYPE OF THAT OF HUMAN GAMMA INTERFERON, B) HYDROXYUREA” (priority 1987, dated 1989).
# System: cellules HL-60
# Conditions: hydroxyurée alone, 150 uM
smiles,measurement,value
NC(=O)NO [hydroxyurée],inhibition de la croissance des cellules HL-60,inhibition suffisante de la croissance des cellules HL-60
